Test results: patent EP2647634A1, “Indole-pyrimidine derivatives and their therapeutic uses” (NOSCIRA, S.A., priority 2012, dated 2013)

Experiments:
[1] = molecular target: T1, Human recombinant Cdk5/p35 heterodimer (Homo sapiens, UniProt Q00535); assay: Cdk5 assay (luminescent detection of ADP, ADP Glo); format: biochemical; details: 10 nM enzyme, 10 µM ATP, 2 µM histone H1, 40 min incubation
T1 construct: purchased Life Technologies
Experimental: (§1) The enzymatic activity of Cdk5 is determined with a commercial system, available from Promega (Madison, WI, USA) based on the luminescent detection of ADP, the byproduct of the kinase reaction. Human recombinant Cdk5/p35 heterodimer (purchased from Life Technologies, Carlsbad, CA, USA) is used as the enzyme source. At the end of the enzymatic reaction the remaining ATP is destroyed and afterwards the ADP produced during the kinase reaction is converted into ATP, which is further converted into light using a suitable luciferase. Therefore, the luminescent signal positively correlates with kinase activity. The assay is performed in 96-well conical bottom black plates, in a final volume of 12 µl with 10 nM enzyme concentration in 40 mM Tris-HCl pH 7.4, 20 mM MgCl2 and 0.01% bovine serum albumin using 10 µM ATP and 2 µM substrate. […] The assay is carried out in the presence of different concentrations of the tested compound, at a final 1% (v/v) DMSO concentration. After a 40 min incubation, at room temperature, 12 µl of a commercial "ADP Glo" solution (from Promega) is added to remove the remaining ATP and a subsequent 40 min incubation at room temperature is performed before adding 24 µl of a suitable "detection reagent" (also supplied by Promega) needed to carry out the transformation of ADP into ATP and its conversion into light by the luciferase enzyme included in the reagent. After a final 30 min incubation at room temperature luminescence is monitored in a suitable plate reader. […] For that purpose the data were fitted to a version of the classical 4-parameters isotherm equation using the nonlinear regression function of GraphPad™ Prism 5.0 (GraphPad Software Inc.).

Human recombinant GSK-3β = molecular target: T2, Human recombinant GSK-3β (Homo sapiens, UniProt P49841); assay: GSK-3β assay (luminescent detection of ADP); format: biochemical; details: 4 nM enzyme, 5 µM ATP, 15 µM substrate peptide, 40 min incubation
T2 construct: purchased Millipore
Experimental: as §1
The enzymatic activity of GSK-3β is determined with the same commercial system described above based on the luminescent detection of ADP. Human recombinant GSK-3β (purchased from Millipore) is used as the enzyme source. […] The assay is carried out in the presence of different concentrations of the tested compound at a final 1% (v/v) DMSO concentration.

Human recombinant CK1ε = molecular target: T3, Human recombinant CK1ε (Homo sapiens, UniProt P49674); assay: CK1ε assay (luminescent detection of ADP); format: biochemical; details: 10 nM enzyme, 50 µM ATP, 50 µM substrate peptide, 40 min incubation
T3 construct: purchased Life Technologies
Experimental: as §1
The enzymatic activity of CK1ε is determined with the same commercial system described above based on the luminescent detection of ADP. Human recombinant CK1ε (purchased from Life Technologies) is used as the enzyme source. The assay is performed in 96-well conical bottom black plates, in a final volume of 12 µl with 10 nM enzyme concentration in 40 mM Tris-HCl pH 7.4, 20 mM MgCl2 and 0.01% bovine serum albumin using 50 µM ATP and 50 µM substrate peptide. The latter is a synthetic peptide provided by AnaSpec (Fremont, CA, USA) under the commercial name "CK1 peptide substrate" and it is based on the sequence of rabbit muscle glycogen synthase with Ser7 phosphorylated (the exact sequence of the peptide is KRRRAL(pS)VASLPGL, where (pS) denotes phospho-Ser). The assay is carried out in the presence of different concentrations of the tested compound at a final 1% (v/v) DMSO concentration.

[2] = tested on: phosphorylation at the Ser-396 residue of Tau protein in human neuroblastoma SH-SY5Y cells; assay: Cellular assay: phosphorylation at Ser-396 of Tau protein (ELISA); format: cell-based; details: 16 h incubation with compound, read-out: pSer396-Tau 16h pEC50 average (converted)
Experimental: The effect of the compounds in cells is determined by monitoring the level of phosphorylation at the Ser-396 residue of Tau protein in human neuroblastoma SH-SY5Y cells. Cells are grown in 96-well plates, 30,000 cells per well in a volume of 100 µl of 1:1 MEM:Ham's F12 medium including 10% (v/v) fetal bovine serum, 100 U/ml penicillin, 100 µg/ml streptomycin and 1% (v/v) 100-fold concentrated commercial stock of non-essential aminoacids (Gibco, Carlsbad, CA, USA), and incubated at 37°C during 24 h. Then, the corresponding amount of test compound is added to the wells to reach the desired concentration in 1% (v/v) DMSO. The system is incubated at 37°C during 16 h and afterwards cells are harvested, washed with phosphate buffer saline and incubated during 30 min on ice with 120 µl per well of "lysis buffer" (10 mM Tris-HCl pH 7.4, 100 mM NaCl, 1 mM EDTA, 2 mM sodium orthovanadate, 1% (v/v) Triton X-100, 10% (v/v) glycerol, 0.1% (w/v) sodium dodecyl sulfate, 0.5 % (w/v) sodium deoxycholate, 4% (v/v) 25-fold concentrated commercial stock of protease inhibitors (Roche, Basel, Switzerland) and 1 mM phenylmethylsulfonyl fluoride). 60 µl of this mixture is then placed in an empty 96-well plate and the levels of Ser-396 phosphorylation are determined using a commercial ELISA kit (Biosource, Carlsbad, CA, USA) following manufacturer's instructions. The levels of phosphrylation are expressed as percentage values after normalizing them to those in untreated cells and those values are used to calculate the pEC50s as described above.

T3 sequence (P49674 whole entry): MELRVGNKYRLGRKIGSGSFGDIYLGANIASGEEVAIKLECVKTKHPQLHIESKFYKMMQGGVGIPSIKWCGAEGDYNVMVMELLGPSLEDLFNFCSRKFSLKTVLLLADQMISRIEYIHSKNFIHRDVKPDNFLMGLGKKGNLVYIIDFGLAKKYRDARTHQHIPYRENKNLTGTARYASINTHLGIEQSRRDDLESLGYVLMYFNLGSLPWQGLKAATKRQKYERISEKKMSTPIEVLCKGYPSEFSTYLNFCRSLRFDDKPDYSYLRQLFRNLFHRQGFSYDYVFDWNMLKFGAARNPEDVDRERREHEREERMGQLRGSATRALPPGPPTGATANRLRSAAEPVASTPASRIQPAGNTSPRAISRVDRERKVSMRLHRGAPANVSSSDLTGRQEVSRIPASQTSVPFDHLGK
T2 sequence (P49841 whole entry): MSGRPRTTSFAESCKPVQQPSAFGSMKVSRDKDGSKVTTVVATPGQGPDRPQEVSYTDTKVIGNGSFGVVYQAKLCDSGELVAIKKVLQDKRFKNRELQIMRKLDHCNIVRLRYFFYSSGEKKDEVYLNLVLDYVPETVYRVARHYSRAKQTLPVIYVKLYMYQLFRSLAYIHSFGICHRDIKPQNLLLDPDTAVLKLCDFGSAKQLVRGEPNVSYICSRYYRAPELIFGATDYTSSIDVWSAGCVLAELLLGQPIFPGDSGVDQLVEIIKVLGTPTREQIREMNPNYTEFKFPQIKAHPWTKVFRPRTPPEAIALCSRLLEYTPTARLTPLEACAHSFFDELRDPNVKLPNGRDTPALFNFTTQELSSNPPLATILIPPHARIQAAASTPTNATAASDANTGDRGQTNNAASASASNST
T1 sequence (Q00535 whole entry): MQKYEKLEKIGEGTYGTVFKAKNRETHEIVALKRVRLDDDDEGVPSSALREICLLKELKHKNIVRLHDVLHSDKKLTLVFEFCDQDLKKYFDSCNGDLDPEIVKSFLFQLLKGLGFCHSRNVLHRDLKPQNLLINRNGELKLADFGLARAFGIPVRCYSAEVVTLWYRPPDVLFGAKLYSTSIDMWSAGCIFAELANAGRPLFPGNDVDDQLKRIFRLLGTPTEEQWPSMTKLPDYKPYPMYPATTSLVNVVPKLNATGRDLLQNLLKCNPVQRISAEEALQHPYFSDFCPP
T1 sequence (Q15078 whole entry partner): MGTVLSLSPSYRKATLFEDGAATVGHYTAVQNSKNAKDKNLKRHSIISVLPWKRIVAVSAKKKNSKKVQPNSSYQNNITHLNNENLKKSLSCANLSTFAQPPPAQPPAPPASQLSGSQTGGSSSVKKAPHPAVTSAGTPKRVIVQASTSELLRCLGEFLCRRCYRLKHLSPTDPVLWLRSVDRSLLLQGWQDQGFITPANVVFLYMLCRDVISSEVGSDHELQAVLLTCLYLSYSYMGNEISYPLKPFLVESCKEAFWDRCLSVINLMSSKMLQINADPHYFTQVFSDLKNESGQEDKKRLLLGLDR

`Cc1cc(-c2c(O)[nH]c3ccccc23)nc(N)n1` [Comparative example, reference compound] showed an EC50 ([1]; read-out: Cdk5 inhibition pEC50 average (converted)) of 0.501 µM, an EC50 (Human recombinant GSK-3β; read-out: GSK3β inhibition pEC50 average (converted)) of 0.398 µM and an EC50 (Human recombinant CK1ε; read-out: CK1 inhibition pEC50 average (converted)) of 3.16 µM.
With `Nc1nccc(-c2c(O)[nH]c3ccccc23)n1` [Compound 1, 3-(2-Amino-4-pyrimidinyl)-2-oxoindole] the “Cdk5 inhibition pEC50 average” value [1] was 8.2, the “GSK3β inhibition pEC50 average” value (Human recombinant GSK-3β) was 6.9 and the “CK1 inhibition pEC50 average” value (Human recombinant CK1ε) was 6.1.
With `CS(=O)(=O)c1ccc2c(-c3ccnc(N)n3)c(O)[nH]c2c1` [Compound 2, 3-(2-Amino-4-pyrimidinyl) -6-methanesulfonyl-2-oxoindole] the “Cdk5 inhibition pEC50 average” value [1] was 6.7, the “GSK3β inhibition pEC50 average” value (Human recombinant GSK-3β) was 5.3 and the “CK1 inhibition pEC50 average” value (Human recombinant CK1ε) was 5.4.
With `Nc1nccc(-c2c(O)[nH]c3ccc(Br)cc23)n1` [Compound 3, 3-(2-Amino-4-pyrimidinyl)-5-Bromo-2-oxoindole] the “Cdk5 inhibition pEC50 average” value [1] was 8.3, the “GSK3β inhibition pEC50 average” value (Human recombinant GSK-3β) was 7.8 and the “CK1 inhibition pEC50 average” value (Human recombinant CK1ε) was 6.1.
For `Nc1nccc(-c2c(O)[nH]c3ccc(F)cc23)n1` [Compound 4, 3-(2-Amino-4-pyrimidinyl) -5-Fluoro-2-oxoindole], the “Cdk5 inhibition pEC50 average” value [1] was 7.5, the “GSK3β inhibition pEC50 average” value (Human recombinant GSK-3β) was 7.5 and the “CK1 inhibition pEC50 average” value (Human recombinant CK1ε) was 6.5. The EC50 [2] was 1.26 µM.
`Nc1nccc(-c2c(O)[nH]c3ccc(Cl)cc23)n1` [Compound 5, 3-(2-Amino-4-pyrimidinyl) -5-Chloro-2-oxoindole] was tested, and the “Cdk5 inhibition pEC50 average” value [1] was 8.8, the “GSK3β inhibition pEC50 average” value (Human recombinant GSK-3β) was 7.9 and the “CK1 inhibition pEC50 average” value (Human recombinant CK1ε) was 6.7. The EC50 [2] was 0.316 µM.
With `Nc1nccc(-c2c(O)[nH]c3ccc([N+](=O)[O-])cc23)n1` [Compound 6, 3-(2-Amino-4-pyrimidinyl) -5-Nitro-2-oxoindole] the “Cdk5 inhibition pEC50 average” value [1] was 6.9, the “GSK3β inhibition pEC50 average” value (Human recombinant GSK-3β) was 6.7 and the “CK1 inhibition pEC50 average” value (Human recombinant CK1ε) was 4.7. It also gave an EC50 [2] of 10 µM.
In the case of `COC(=O)c1ccc2c(-c3ccnc(N)n3)c(O)[nH]c2c1` [Compound 7, 3-(2-Amino-4-pyrimidinyl) -2-oxoindole-6-carboxylic acid methyl ester], the “Cdk5 inhibition pEC50 average” value [1] is reported as 6.8, the “GSK3β inhibition pEC50 average” value (Human recombinant GSK-3β) is reported as 6.6 and the “CK1 inhibition pEC50 average” value (Human recombinant CK1ε) is reported as 5.9.
In the case of `Nc1nccc(-c2c(O)[nH]c3ccc(F)c(F)c23)n1` [Compound 8, 3-(2-Amino-4-pyrimidinyl)-4,5-difluoro-2-oxoindol], the “Cdk5 inhibition pEC50 average” value [1] is reported as 7.6, the “GSK3β inhibition pEC50 average” value (Human recombinant GSK-3β) is reported as 7.6 and the “CK1 inhibition pEC50 average” value (Human recombinant CK1ε) is reported as less than 4.
